Data taken from patent US11040223B2, “Compositions and methods related to xCT peptides” (AGILVAX, INC., priority 2015, dated 2021).

Columns and labels:
[1] = test system: HCC-1806 derived tumorspheres; assay: FACS binding of immune sera from VLP immunized mice to tumorspheres; assay type: cell-based, human; settings: sera (1:50) of mice immunized with VLPs 3 times at 2 week intervals; passage 2 HCC-1806 tumorspheres
Protocol: FIG. 1A-1B. xCT VLPs elicit antibodies that bind to tumorspheres. Immune sera (1:50) from xCT or control (MS2) VLP immunized mice were incubated with HCC-1806 derived tumorspheres. A FITC conjugated anti mouse IgG was used to detect sera antibodies bound to the cells. (A) FACS analysis of the percentage of tumorsphere cells that bound to the immune sera. As a positive control for xCT binding, we used a commercially available xCT polyclonal antibody. (B) Immunofluorescence analysis showing antibody binding to a tumorsphere from an xCT ECD 6 immunized mouse. Cell nuclei are stained with DAPI.
To determine if xCT VLP vaccination generated antibodies that could bind to breast cancer stem cells, sera from animals immunized with VLPs 3 times at 2 week intervals were incubated with passage 2 tumorspheres from the human cell line HCC-1806.

[2] = test system: mouse tubo-derived tumorspheres; assay: Lung metastases in VLP immunized mice injected i.v. with tumorspheres; assay type: in vivo; settings: 5×10^4 tumorspheres i.v., lungs 20 days later, vs MS2 control VLPs
Protocol: FIG. 2. […] Mice immunized with xCT or MS2 control VLPs were injected (i.v) with 5×10^4 mouse tubo-derived tumorspheres. 20 days later, animals were euthanized and lungs were removed, section and the number of metastatic foci were measured. The number of mice were MS2 (n=2), xCT ECD3 (n=5), xCT ECD5 (n=5) and xCT ECD6 (n=4). Metastatic lesions were counted from two lung sections per animal. Data presented is the average number of lesions per slide. Two-tailed student t test was used to determine significance. ** indicates a p-value <0.01.
Inhibition of xCT function by a […] vaccine inhibits the number of metastatic lesions in the lung by 40% in a well characterized breast cancer stem cell transplantation model.

TUBO cells = assay: MTT in vitro cytotoxicity on TUBO cells; assay type: cell-based, mouse; settings: 72 hours
Protocol: (§1) A MTT test was performed on TUBO cells and tumorspheres that had either been treated or not with scalar doses of xCT inhibitor SASP. […] On the contrary, xCT overexpression increases colony generating ability, as confirmed by the higher number of colonies generated in soft agar by NIH/3T3 and HEK-293 cells transfected with xCT when compared with the corresponding cells transfected with empty plasmids.
(§2) Twenty-four hours after TUBO cells and tumorspheres seeding in 96-well plates, scalar doses of doxorubicin or sulfasalazine (SASP; Sigma-Aldrich) were added and incubated at 37° C. for 72 hours. Cytotoxicity was evaluated with MTT using the Cell Proliferation Kit I (Roche Diagnostics).

[3] = test system: TUBO-derived tumorspheres; assay: Growth of s.c. tumors from TUBO-derived tumorspheres in vaccinated BALB/c mice; settings: treated at 2 mm mean diameter, repeated the week later
Text: TUBO-derived tumorspheres were s.c. implanted into BALB/c mice that were vaccinated when tumors reached 2 or 4 mm mean diameter to evaluate whether xCT immune-targeting hinders breast cancer growth (FIG. 6A-6D).
Female 6- to 8-week-old wild-type (Charles River Laboratories) and Ig μ-chain gene knocked out (BALB-μIgKO) BALB/c mice were maintained at the Molecular Biotechnology Center, University of Torin, and treated in accordance with the University Ethical Committee and European guidelines under Directive 2010/63. Vaccination, performed either before or after tumor challenge, consisted of two intramuscular electroporations at 2 weeks interval, of pVAX1 or pVAX1-xCT plasmids.
Primary s.c. tumors were induced by injecting 1×10^4 TUBO or 4T1 tumorsphere-derived cells.

[4] = test system: TUBO-derived tumorspheres; assay: MTT in vitro cytotoxicity on tumorspheres; assay type: cell-based; settings: Mus musculus, 72 hours, read-out: IC50, tumorsphere viability (MTT)
Protocol: as §1, §2

tumorspheres = assay: Tumorsphere generation after SASP or xCT siRNAs; assay type: cell-based, mouse; settings: spheres counted 5 days later (SASP)
Protocol: FIG. 4A-4H. xCT regulates CSC self-renewal and the intracellular redox balance. A and B, MTT assay of the cytotoxic effect exerted by scalar doses of SASP or by anti-xCT siRNAs on TUBO (A) and tumorspheres (B). (C) Sphere generation ability relative to untreated cells of tumorspheres incubated with SASP. (D) Sphere generation ability of tumorspheres incubated with siRNAs to xCT, scrambled siRNAs, or not at all shown as tumorsphere number/10^3 plated cells. (E) and (F) FACS analysis of xCT and CSC marker expression in spheres 24 hours after transfection with siRNAs to xCT or scrambled siRNAs. (E) histograms show xCT expression; open histograms show the background of negative control IgG stained cells from one representative experiment. (F) relative expression (%) of xCT^+, Sca-1^+, and CD44^high/CD24^low cells in tumorsphere-derived cells transfected with siRNAs to xCT (black bars) compared with cells transfected with scrambled siRNAs (dashed line). G and H, GSH (G) and ROS (H) levels in TUBO cells and their derived tumorspheres after either seeding in normal conditions, transfection with siRNAs to xCT, or scrambled siRNAs over three independent experiments. *, P<0.05; **, P<0.01;***, P<0.001, Student t test. […]
Dissociated tumorspheres were cultured with scalar doses of SASP or its diluent DMSO (Sigma-Aldrich), and the total number of tumorspheres/well was counted 5 days later.

[5] = physiological conditions; cited from earlier work
[6] = in vivo; cited from earlier work
xCT = biological target: T1, xCT (Homo sapiens, UniProt Q9UPY5); settings: animal models; cited from earlier work
T1 sequence (Q9UPY5 1-501): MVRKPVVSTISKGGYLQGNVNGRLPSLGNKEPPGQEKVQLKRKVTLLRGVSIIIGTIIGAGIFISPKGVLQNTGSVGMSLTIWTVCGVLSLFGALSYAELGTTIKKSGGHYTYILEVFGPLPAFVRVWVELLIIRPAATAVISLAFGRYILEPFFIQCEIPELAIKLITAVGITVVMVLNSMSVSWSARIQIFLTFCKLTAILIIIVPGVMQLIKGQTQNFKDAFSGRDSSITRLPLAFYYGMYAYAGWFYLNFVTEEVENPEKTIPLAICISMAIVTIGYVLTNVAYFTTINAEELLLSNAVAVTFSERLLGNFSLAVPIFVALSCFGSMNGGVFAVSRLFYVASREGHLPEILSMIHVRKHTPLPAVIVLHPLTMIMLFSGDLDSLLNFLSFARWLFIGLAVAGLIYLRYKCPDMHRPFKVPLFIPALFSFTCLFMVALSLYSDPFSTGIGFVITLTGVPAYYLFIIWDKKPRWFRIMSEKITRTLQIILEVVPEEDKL
T1 sequence (P08195 1-529 partner): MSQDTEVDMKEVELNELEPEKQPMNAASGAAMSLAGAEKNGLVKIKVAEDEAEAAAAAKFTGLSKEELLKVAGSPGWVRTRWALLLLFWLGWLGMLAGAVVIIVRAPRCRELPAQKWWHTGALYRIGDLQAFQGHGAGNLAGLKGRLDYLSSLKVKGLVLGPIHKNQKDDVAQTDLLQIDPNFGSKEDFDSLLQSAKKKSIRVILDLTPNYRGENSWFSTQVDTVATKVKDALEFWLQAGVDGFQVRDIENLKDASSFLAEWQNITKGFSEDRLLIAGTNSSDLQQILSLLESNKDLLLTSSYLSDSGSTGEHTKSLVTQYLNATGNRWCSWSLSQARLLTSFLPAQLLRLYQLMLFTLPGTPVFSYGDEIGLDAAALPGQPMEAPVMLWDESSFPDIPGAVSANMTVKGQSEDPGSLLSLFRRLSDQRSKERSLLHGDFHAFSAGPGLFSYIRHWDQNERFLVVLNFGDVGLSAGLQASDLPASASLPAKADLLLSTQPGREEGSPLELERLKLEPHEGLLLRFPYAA

xCT ECD6: MS2 VLP displaying extracellular domain 6 of human xCT in the AB loop of the coat protein (YSDPFS; displayed on MS2 VLP coat protein AB loop; listed as Homo sapiens)
antibody response: immune sera antibodies binding to tumorspheres by FACS [1]: generated antibodies against xCT that were able to bind to human breast cancer cells as well as a commercially available xCT antibody
reduction of the number of metastases in the lung [2]: ~60%

COc1cccc2c1C(=O)c1c(O)c3c(c(O)c1C2=O)C[C@@](O)(C(=O)CO)C[C@@H]3O[C@H]1C[C@H](N)[C@H](O)[C@H](C)O1 [doxorubicin]
sensitivity of TUBO cells compared with tumorspheres (MTT) (TUBO cells; scalar doses): higher sensitivity
mice with tumor regression [3]: 25%

xCT ECD3: MS2 VLP displaying extracellular domain 3 of human xCT in the AB loop of the coat protein (MQLIKGQTQNFKDAFSGRDSSITR; displayed on MS2 VLP coat protein AB loop; listed as Homo sapiens)
antibody response: immune sera antibodies binding to tumorspheres by FACS [1]: generated antibodies against xCT that were able to bind to human breast cancer cells as well as a commercially available xCT antibody

O=C(O)c1cc(/N=N/c2ccc(S(=O)(=O)Nc3ccccn3)cc2)ccc1O [SASP, sulfasalazine]
IC50 (TUBO cells; Mus musculus, TUBO cells, read-out: IC50, cell viability (MTT)): 126 ± 25.7 µM
IC50 [4]: 51.6 ± 3.5 µM
tumorsphere generation (tumorspheres): impaired tumorsphere generation
stability and solubility [5]: labile and insoluble under physiological conditions
bioavailability [6]: low bioavailability
metastatic foci (xCT): significant decreases in metastatic foci
